Test results taken from patent US20040010001A1, “Methods and compositions for modulating cell proliferation and cell death” (priority 1999, published 2004).

System: bladder, breast, head and neck, ovarian and prostate tumors from human patients
Test: Paclitaxel in histocultures of tumors obtained from human patients
Format: cell-based
Conditions: 96 tumors; bladder 2 hours, remaining tumors 96 hours
Protocol: The third study examined the relationship between the levels of aFGF and bFGF in human tumors and tumor sensitivity to anticancer agents. This study was performed using 96 tumors obtained from human patients, including include bladder, breast, head and neck, ovarian and prostate tumors. Paclitaxel was used as the model drug. […] The drug-induced antiproliferation was measured by inhibition of DNA precursor incorporation, and apoptosis was measured by morphological changes and by labeling of nicked DNA. aFGF, bFGF and other proteins known to contribute to drug resistance (i.e. the mdr1 p-glycoprotein, p53 and bcl-2) were detected by immunohistochemical staining.

CC(=O)O[C@H]1C(=O)[C@@]2(C)[C@H]([C@H](OC(=O)c3ccccc3)[C@]3(O)C[C@H](OC(=O)[C@H](O)[C@@H](NC(=O)c4ccccc4)c4ccccc4)C(C)=C1C3(C)C)[C@]1(OC(C)=O)CO[C@@H]1C[C@@H]2O [Paclitaxel]
tumors in which antiproliferation was produced: 84% | tumors in which apoptosis was induced: 96%
